In this assay the target is T1, Helianthus annuus EPSPS, native, SEQ ID NO:9 (Helianthus annuus, UniProt A0A251S0N3).
T1 sequence (A0A251S0N3 67-518): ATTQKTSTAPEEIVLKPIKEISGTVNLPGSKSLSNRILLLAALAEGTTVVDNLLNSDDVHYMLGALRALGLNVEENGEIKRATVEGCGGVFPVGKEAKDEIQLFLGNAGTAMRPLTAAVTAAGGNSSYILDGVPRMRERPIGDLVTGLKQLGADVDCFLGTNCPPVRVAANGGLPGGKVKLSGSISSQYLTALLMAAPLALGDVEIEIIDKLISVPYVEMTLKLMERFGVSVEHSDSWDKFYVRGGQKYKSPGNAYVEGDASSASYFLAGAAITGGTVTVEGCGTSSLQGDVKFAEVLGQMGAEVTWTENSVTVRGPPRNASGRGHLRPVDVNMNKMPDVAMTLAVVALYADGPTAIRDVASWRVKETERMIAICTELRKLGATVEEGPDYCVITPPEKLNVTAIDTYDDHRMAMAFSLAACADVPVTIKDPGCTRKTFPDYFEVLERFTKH
The experiment in a line: EPSPS substrate saturation kinetics, native sunflower. The class given is biochemical. The protocol: EPSPS activity was determined by quantifying the phosphate generated from the EPSPS reaction. Release of inorganic phosphate was coupled to reaction with 2-amino-6-mercapto-7-methylpurine ribonucleoside, catalyzed by purine-nucleoside phosphorylase (M R Webb, Proc. Natl. Acad. Sci. 89:4884-4887, 1992). The absorbance change that occurs was monitored at 360 nm, where the extinction is 11,200 M^−1 cm^−1, with a Spectramax plate reader (Molecular Devices). To determine kinetic parameters, the varied substrate was present at seven concentrations (the eighth being the blank, containing no substrate) ranging from 4 to 400 uM and the unvaried substrate present at saturation. Six microliters of 50-fold concentrated stock solutions of the varied substrate were placed in the wells of the 96-well assay plate and reactions were started with the addition of a mixture containing 25 mM Hepes, pH 7, 100 mM KCl, 0.3 mM 2-amino-6-mercapto-7-methylpurine ribonucleosde, 1 uM (1 unit/ml) purine-nucleoside phosphorylase (Sigma N8264) and 200 uM of the non-varied substrate. Reactions were monitored with a Spectramax plate reader. The Michaelis-Menten kinetics protocol of the Spectramax software was customized for the substrate concentrations used. The software returns values of KM and Vmax using the Lineweaver-Burke transformation of the Michaelis-Menten equation. To determine kcat, Vmax (uM/min) was divided by the enzyme concentration (uM). […] KI was then calculated from the following form of the Michaelis-Menten equation for competitive inhibition: KI=KM[I]/(KM app−KM) KM approximates the dissociation constant of the enzyme-substrate complex while kcat is the rate of conversion of substrate to product when the substrate concentration is saturating. kcat/KM is a widely accepted parameter for catalytic efficiency when substrate concentration is low (˜KM). […] The parameter kcat/KM×KI is used to quantify both catalytic efficiency and insensitivity and thus the overall fitness of the enzyme.
Native EPSPS amino acid sequences of rice (Oryza sativa) (SEQ ID NO:7), sorghum (Sorghum halepense) (SEQ ID NO:8), and sunflower (Helianthus annus) (SEQ ID NO:9) including the chloroplast transit peptide sequences were assembled and analyzed for mapping the corresponding amino acid mutations from the maize 868-H6. If complete EPSPS sequences were not available, appropriate adjustments were made based on sequence alignments and conserved residue mapping.
There is no complete sequence available for Helianthus annuus. […]
ChloroP Prediction Server (Emanuelsson, O. et al. 1999. Protein Sci. 8(5):978-84) was used to approximate the amino terminus of the mature EPSPS proteins. […] The synthetic genes were cloned into a plasmid vector and expressed, purified and analyzed as described in Example 1.

A word on the kcat: it is the maximal rate divided by the concentration of active sites. In general, Km refers to the concentration of substrate that gives half-maximal velocity. For the compound `C=C(OP(=O)(O)O)C(=O)O` [PEP, phosphoenolpyruvate], the kcat (PEP varied) is 29.52 s⁻¹. For the same compound, the Km (read-out: KM (PEP), PEP varied) was 18.8 µM.

By Ki is commonly meant the dissociation constant of the complex between target and ligand, obtained from inhibition or displacement. Low values mean higher affinity, high ones lower affinity. For the compound `O=C(O)CNCP(=O)(O)O` [glyphosate, N-phosphonomethylglycine], the Ki is 150 nM. Moreover, for the setting “PEP as substrate, glyphosate as inhibitor”, the “(kcat/KM)*KI” value is 14.

Values taken from US11549123B2, “Plant EPSP synthases and methods of use” (PIONEER HI-BRED INTERNATIONAL, INC., priority 2015, dated 2023).
